Reference: ChEMBL document CHEMBL1158151, “Cactus Alkaloids. XXXIX. A Glucotetrahydroiosquinoline From the Mexican Cactus, Pterocereus gaumeri” (1979)
Values after ≈ are worked out from the molar mass of the structure shown.

Test: Cytotoxicity against human 9KB cells
Assay type: functional
Settings: read-out: ED50 (the source's name)

SMILES | EC50 [µg/mL]
COc1cc2c(c(O)c1OC)CCN(C)C2CO (configuration not stated) [DEGLUCOPTEROCEREINE] | 16 (≈ 63.2 µM)
COc1cc2c(c(O[C@@H]3O[C@H](CO)[C@@H](O)[C@H](O)[C@H]3O)c1OC)CCN(C)C2CO (some centres not stated) [PTEROCEREINE] | > 100
